Experimental data as given in patent US9833497B2, “Human originated EGF domain proteins and use of the same” (CHENGDU SOURCEBIO LIMITED-LIABILITY COMPANY, priority 2013, dated 2017).

What was measured:
Assay type in all cases: cell-based
E. coli DH5α = test: Antibacterial activity: MIC and growth curve against E. coli DH5α in 96-well plate; conditions: minimal inhibitory concentration against E. coli DH5α; 96-well plate, 5×10^5 CFU/mL, 37° C., judged after 8 h
Summary of the method: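 Log-phase bacteria (OD600 ~0.5) resuspended in LB at 5×10^5 CFU/mL, exposed to recombinant protein at 50, 25, 12.5 μg/mL final in triplicate, 37 °C shaking at 175 rpm. OD600 read every 30 min; MIC is lowest concentration showing no growth.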

E. coli BL21 = test: MIC against Gram-negative bacteria: E. coli BL21; conditions: 5×10^5 CFU/mL
Summary of the method: (§1)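 Bacteria grown in LB at 37° C to McFarland 0.5, resuspended and seeded at 5×10^5 CFU/mL in 96-well plates. Purified human EGF-domain proteins two-fold serially diluted, triplicate wells; cultured at 37° C, shaking 175 rpm. MIC = lowest protein concentration with no growth.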

Aeromonas hydrophila = test: MIC against Gram-negative bacteria: Aeromonas hydrophila; conditions: 5×10^5 CFU/mL
Summary of the method: as §1

Proteus vulgaris = test: MIC against Gram-negative bacteria: Proteus vulgaris; conditions: 5×10^5 CFU/mL
Summary of the method: as §1

Serratia marcescens = test: MIC against Gram-negative bacteria: Serratia marcescens; conditions: 5×10^5 CFU/mL
Summary of the method: as §1

Enterobacter cloacae = test: MIC against Gram-negative bacteria: Enterobacter cloacae; conditions: 5×10^5 CFU/mL
Summary of the method: as §1

Citrobacter diversus = test: MIC against Gram-negative bacteria: Citrobacter diversus; conditions: 5×10^5 CFU/mL
Summary of the method: as §1

Klebsiella pneumonia = test: MIC against Gram-negative bacteria: Klebsiella pneumonia; conditions: 5×10^5 CFU/mL
Summary of the method: as §1

Pseudomonas aeruginosa = test: MIC against Gram-negative bacteria: Pseudomonas aeruginosa; conditions: 5×10^5 CFU/mL
Summary of the method: as §1

Proteus mirabilis = test: MIC against Gram-negative bacteria: Proteus mirabilis; conditions: 5×10^5 CFU/mL
Summary of the method: as §1

Moraxella catarrhalis = test: MIC against Gram-negative bacteria: Moraxella catarrhalis; conditions: 5×10^5 CFU/mL
Summary of the method: as §1

[1] = 10 h cultivation at 37° C., two-fold serial dilution
[2] = E. coli BL21, 10 h cultivation at 37° C.
[3] = A. hydrophila, 10 h cultivation at 37° C.
[4] = P. vulgaris, 10 h cultivation at 37° C.
[5] = S. marcescens, 10 h cultivation at 37° C.
[6] = E. cloacae, 10 h cultivation at 37° C.
[7] = C. diversus, 10 h cultivation at 37° C.
[8] = K. pneumonia, 10 h cultivation at 37° C.
[9] = P. aeruginosa, 10 h cultivation at 37° C.
[10] = P. mirabilis, 10 h cultivation at 37° C.
[11] = M. catarrhalis, 10 h cultivation at 37° C.

For “PRT1062 (LQGNCSRLGCQHHCVPTLDGPTCYCNSSFQLQADGKTCK; listed as Homo sapiens)”, the MIC (E. coli DH5α) was 25 mg/L, the “MIC E. coli BL21” value (E. coli BL21; [1]) was 50 mg/L and the “MIC A. hydrophila” value (Aeromonas hydrophila; [1]) was 25 mg/L. The “MIC P. vulgaris” value (Proteus vulgaris; [1]) was 25 mg/L, the “MIC S. marcescens” value (Serratia marcescens; [1]) was 50 mg/L and the “MIC E. cloacae” value (Enterobacter cloacae; [1]) was 25 mg/L. The “MIC C. diversus” value (Citrobacter diversus; [1]) was 50 mg/L, the “MIC K. pneumonia” value (Klebsiella pneumonia; [1]) was 12.5 mg/L and the “MIC P. aeruginosa” value (Pseudomonas aeruginosa; [1]) was 25 mg/L. The “MIC P. mirabilis” value (Proteus mirabilis; [1]) was 12.5 mg/L and the “MIC M. catarrhalis” value (Moraxella catarrhalis; [1]) was 25 mg/L.
For “PRT802 (SNRCQCQNGALCNPITGACVCAAGFRGWRCE; listed as Homo sapiens)”, the MIC (E. coli DH5α) was 12.5 mg/L, the “MIC (μg/mL) E. coli BL21” value (E. coli BL21; [2]) was 12.5 µg/mL and the “MIC (μg/mL) A. hydrophila” value (Aeromonas hydrophila; [3]) was 12.5 µg/mL. The “MIC (μg/mL) P. vulgaris” value (Proteus vulgaris; [4]) was 25 µg/mL, the “MIC (μg/mL) S. marcescens” value (Serratia marcescens; [5]) was 12.5 µg/mL and the “MIC (μg/mL) E. cloacae” value (Enterobacter cloacae; [6]) was 12.5 µg/mL. For the same substance, the “MIC (μg/mL) C. diversus” value (Citrobacter diversus; [7]) was 25 µg/mL, the “MIC (μg/mL) K. pneumonia” value (Klebsiella pneumonia; [8]) was 12.5 µg/mL and the “MIC (μg/mL) P. aeruginosa” value (Pseudomonas aeruginosa; [9]) was 25 µg/mL. For the same substance, the “MIC (μg/mL) P. mirabilis” value (Proteus mirabilis; [10]) was 25 µg/mL and the “MIC (μg/mL) M. catarrhalis” value (Moraxella catarrhalis; [11]) was 12.5 µg/mL.
With “PRT33 (ACELHTFGRTCKERCSGQEGCKSYVFCLPDPYGCSCATGWKGLQCN; listed as Homo sapiens)” the MIC (E. coli DH5α) was 12.5 mg/L, the “MIC (μg/mL) E. coli BL21” value (E. coli BL21; E. coli BL21, 96-well plate, 37° C., 10 h) was 50 µg/mL and the “MIC (μg/mL) A. hydrophila” value (Aeromonas hydrophila; Aeromonas hydrophila, 96-well plate, 37° C., 10 h) was 12.5 µg/mL. The “MIC (μg/mL) P. vulgaris” value (Proteus vulgaris; Proteus vulgaris, 96-well plate, 37° C., 10 h) was 25 µg/mL, the “MIC (μg/mL) S. marcescens” value (Serratia marcescens; Serratia marcescens, 96-well plate, 37° C., 10 h) was 12.5 µg/mL and the “MIC (μg/mL) E. cloacae” value (Enterobacter cloacae; Enterobacter cloacae, 96-well plate, 37° C., 10 h) was 25 µg/mL. For the same substance, the “MIC (μg/mL) C. diversus” value (Citrobacter diversus; Citrobacter diversus, 96-well plate, 37° C., 10 h) was 12.5 µg/mL, the “MIC (μg/mL) K. pneumonia” value (Klebsiella pneumonia; Klebsiella pneumonia, 96-well plate, 37° C., 10 h) was 12.5 µg/mL and the “MIC (μg/mL) P. aeruginosa” value (Pseudomonas aeruginosa; Pseudomonas aeruginosa, 96-well plate, 37° C., 10 h) was 12.5 µg/mL. For the same substance, the “MIC (μg/mL) P. mirabilis” value (Proteus mirabilis; Proteus mirabilis, 96-well plate, 37° C., 10 h) was 25 µg/mL and the “MIC (μg/mL) M. catarrhalis” value (Moraxella catarrhalis; Moraxella catarrhalis, 96-well plate, 37° C., 10 h) was 12.5 µg/mL.
“PRT455 (DVNECSQENGGCLQICHNKPGSFHCSCHSGFELSSDGRTCQ; listed as Homo sapiens)” was tested, and the MIC (E. coli DH5α) was 50 mg/L, the “MIC against E. coli BL21” value (E. coli BL21; 96-well plate, 37° C., 10 h) was 12.5 mg/L and the “MIC against A. hydrophila” value (Aeromonas hydrophila; 96-well plate, 37° C., 10 h) was 12.5 mg/L. The “MIC against P. vulgaris” value (Proteus vulgaris; 96-well plate, 37° C., 10 h) was 100 mg/L, the “MIC against S. marcescens” value (Serratia marcescens; 96-well plate, 37° C., 10 h) was 50 mg/L and the “MIC against E. cloacae” value (Enterobacter cloacae; 96-well plate, 37° C., 10 h) was 50 mg/L. The “MIC against C. diversus” value (Citrobacter diversus; 96-well plate, 37° C., 10 h) was 50 mg/L, the “MIC against K. pneumonia” value (Klebsiella pneumonia; 96-well plate, 37° C., 10 h) was 12.5 mg/L and the “MIC against P. aeruginosa” value (Pseudomonas aeruginosa; 96-well plate, 37° C., 10 h) was 50 mg/L. The “MIC against P. mirabilis” value (Proteus mirabilis; 96-well plate, 37° C., 10 h) was 50 mg/L and the “MIC against M. catarrhalis” value (Moraxella catarrhalis; 96-well plate, 37° C., 10 h) was 12.5 mg/L.
For “PRT403 (DNDECSAQPGPCGAHGHCHNTPGSFRCECHQGFTLVSSGHGCE; listed as Homo sapiens)”, the MIC (E. coli DH5α) was 12.5 mg/L, the MIC (E. coli BL21; [2]) was 25 mg/L and the MIC (Aeromonas hydrophila; [3]) was 25 mg/L. It also gave an MIC (Proteus vulgaris; [4]) of 25 mg/L, an MIC (Serratia marcescens; [5]) of 50 mg/L and an MIC (Enterobacter cloacae; [6]) of 12.5 mg/L. The MIC (Citrobacter diversus; [7]) was 50 mg/L, the MIC (Klebsiella pneumonia; [8]) was 25 mg/L and the MIC (Pseudomonas aeruginosa; [9]) was 50 mg/L. The MIC (Proteus mirabilis; [10]) was 12.5 mg/L and the MIC (Moraxella catarrhalis; [11]) was 25 mg/L.
